{"source": "patent US20130034522A1", "about": "“THERAPIES FOR TREATING HEPATITIS C VIRUS INFECTION” (priority 2010, published 2013)", "key": {"[1]": {"assay": "PK parameters of VX-222 in Study 101 Part C and Study 102 Part A", "type": "in vivo, human", "method": "In Part C of Study 101, VX-222 was administered as multiple doses of 750 mg b.i.d. to treatment-naïve subjects with chronic hepatitis C for 3 days. In addition, in Part A of Study 102, VX-222 was administered as multiple doses ranging from 250 mg to 750 mg BID and 1500 mg once a day to treatment-naïve subjects with chronic hepatitis C for 3 days."}, "[2]": {"tested_on": "Huh-7, ET replicon cells", "assay": "Drug combination luciferase assay (4-day, MacSynergy)", "type": "cell-based, Hepatitis C virus", "settings": "combination with VX-950, 4 days", "from_the_text": "Replicon cell lines Huh-7, ET cells derived from the Huh-7 hepatocarcinoma cell line are obtained from Dr. Ralf Bartenschlager (Bartenschlager, R. Innovation: Hepatitis C virus replicons: potential role for drug development. Nat. Rev. Drug Discov. 2002, 1, 911-916. Krieger, N.; Lohmann, V.; Bartenschlager, R. Enhancement of hepatitis C virus RNA replication by cell culture-adaptive mutations. J. Virol. 2001, 75, 4614-4624. Lohmann, V.; Korner, F.; Koch, J.-O.; Herian, U.; Theilmann, L.; Bartenschlager, R. Replication of subgenomic hepatitis C virus RNAs in a hepatoma cell line. Science. 1999, 285, 110-113.) (Reblikon GmbH, Gau-Odernheim, Germany). […]\nHuh-7, ET replicon cells are seeded in white opaque 96-well cell culture microtiter plates at sub-confluent density (3×10^3 cells per well) in a volume of 100 μL media. […] Plates are read for Luciferase counts using a luminometer (Wallac MicroBeta Trilux, Perkin Elmer™, MA, USA). […]"}, "[3]": {"settings": "multiple doses, treatment-naïve chronic hepatitis C subjects"}}, "note": "Values joined by “and” are separate entries in the source; they are usually repeats but may differ in a detail not shown here. Equal entries are not always repeated."}
{"smiles": "CC1CCC(C(=O)N(c2cc(C#CC(C)(C)C)sc2C(=O)O)C2CCC(O)CC2)CC1", "note": "(stereo not drawn) [VX-222, 5-(3,3-Dimethylbut-1-ynyl)-3-[(trans-4-hydroxycyclohexyl)-(4-trans methylcyclohexanecarbonyl)amino]thiophene-2-carboxylic acid]", "values": [{"measurement": "VX-222 exposures versus dose", "setting": "[1]; 250 to 750 mg b.i.d.", "result": "increased in an approximately dose proportional manner"}, {"measurement": "mean t1/2 across doses", "setting": "[1]; all doses", "result": "remained unchanged across all doses"}, {"measurement": "VX-222 concentrations at the end of the dosing intervals", "setting": "[1]; all subjects", "result": "> 319", "unit": "ng/mL"}, {"measurement": "accumulation index", "setting": "[1]; b.i.d. regimens", "result": "around 2 fold"}, {"measurement": "half-life", "setting": "[1]; human, in vivo", "result": "~5", "unit": "h"}, {"measurement": "Tmax", "setting": "[1]; human, in vivo, read-out: median tmax at steady state", "result": "2 to 6", "unit": "h"}, {"measurement": "exposures in treatment-naïve HCV subjects compared to healthy subjects", "setting": "[1]; in vivo", "result": "around 2 fold"}, {"measurement": "accumulation index for AUC", "setting": "[1]; [3]", "result": 1.90, "unit": "fold"}, {"measurement": "accumulation index for Cmax", "setting": "[1]; [3]", "result": 1.75, "unit": "fold"}, {"measurement": "time to steady state", "setting": "[1]; repeated measure analyses", "result": "≤ 3", "unit": "days"}, {"measurement": "Results VX-950 (synergy class)", "setting": "[2]", "result": "Moderated synergy (50 uM^2%-100 uM^2%)"}, {"measurement": "volume of synergy", "setting": "[2]; listed as 1", "result": "90 uM^2% and 86 uM^2%"}]}
